In ChEMBL document CHEMBL2440085, “Identification of novel PARP-1 inhibitors by structure-based virtual screening” (Bioorg Med Chem Lett, 2013):
pIC50: −log10 of the molar value. Active and inactive are the calls of the source. The rule behind the calls is not given here.

The compounds below were run against T1, Poly [ADP-ribose] polymerase 1 (Homo sapiens, UniProt P09874) (assay: Inhibition of PARP-1 (unknown origin) at 10 uM after 60 mins by colorimetric assay relative to control).
T1 sequence (P09874 whole entry): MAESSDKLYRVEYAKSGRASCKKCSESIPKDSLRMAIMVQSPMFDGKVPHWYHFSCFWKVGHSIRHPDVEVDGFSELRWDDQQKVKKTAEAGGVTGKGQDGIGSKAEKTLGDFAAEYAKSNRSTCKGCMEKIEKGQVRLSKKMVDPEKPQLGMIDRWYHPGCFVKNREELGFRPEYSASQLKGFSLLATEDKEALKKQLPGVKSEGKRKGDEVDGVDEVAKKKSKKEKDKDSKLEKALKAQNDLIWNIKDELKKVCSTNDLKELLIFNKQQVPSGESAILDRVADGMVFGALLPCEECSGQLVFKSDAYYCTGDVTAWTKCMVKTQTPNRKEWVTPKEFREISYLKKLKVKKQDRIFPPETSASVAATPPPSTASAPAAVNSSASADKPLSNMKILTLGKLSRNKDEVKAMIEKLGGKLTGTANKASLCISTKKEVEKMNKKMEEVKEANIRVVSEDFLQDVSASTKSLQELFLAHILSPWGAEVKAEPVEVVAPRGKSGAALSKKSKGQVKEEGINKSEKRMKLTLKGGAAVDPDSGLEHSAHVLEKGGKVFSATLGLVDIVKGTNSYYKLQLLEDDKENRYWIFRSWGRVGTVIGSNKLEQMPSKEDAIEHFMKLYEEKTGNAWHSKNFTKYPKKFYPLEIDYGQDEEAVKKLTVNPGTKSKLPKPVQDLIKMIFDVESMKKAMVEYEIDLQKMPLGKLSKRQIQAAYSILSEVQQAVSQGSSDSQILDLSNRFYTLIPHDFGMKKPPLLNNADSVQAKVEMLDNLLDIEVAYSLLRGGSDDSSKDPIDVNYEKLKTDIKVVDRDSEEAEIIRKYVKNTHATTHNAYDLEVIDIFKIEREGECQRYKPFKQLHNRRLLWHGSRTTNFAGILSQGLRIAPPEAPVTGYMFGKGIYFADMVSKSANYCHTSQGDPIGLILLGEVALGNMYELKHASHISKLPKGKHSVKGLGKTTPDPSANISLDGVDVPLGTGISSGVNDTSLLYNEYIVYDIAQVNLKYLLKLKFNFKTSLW

Row | inhibition | SMILES
1 | < 20% | O=c1[nH]cnc2sccc12
2 | 46% | Oc1ncnc2ccsc12

Each compound was assayed against T1, Poly [ADP-ribose] polymerase 1 (assay: Inhibition of PARP-1 (unknown origin) at 1 uM after 60 mins by colorimetric assay relative to control).

Row | inhibition | SMILES
3 | inactive | Cc1nn2nnnc2[nH]c1=O
4 | 40% | O=C1N[C@@H]2N(Cc3ccccc3C23CCOCC3)c2ccccc21
5 | inactive | O=C(c1ccccc1)c1c2nc[nH]c(=O)c2c2ccccn12
6 | 40% | N#Cc1c(-c2ccccc2)cn2c1[nH]c(=O)c1ccccc12
7 | inactive | O=C1NC(=O)c2cc(NS(=O)(=O)c3cccc4cccnc34)ccc21
8 | inactive | Oc1nc2ccccc2n2nnnc12
9 | 40% | Cc1sc2nc(SCC(=O)N3CCN(CCO)CC3)[nH]c(=O)c2c1C
10 | inactive | Cc1cc(OCC(=O)Nc2ccc3c(c2)NC(=O)C(C)O3)ccc1Cl (stereo not given)
11 | inactive | Cc1cccc(N2CCN(c3nnc(C)c(=O)[nH]3)CC2)c1C
12 | inactive | O=C1Nc2ccc(S(=O)(=O)NCc3cccnc3)c3cccc1c23
13 | inactive | CCN(CC)c1ccc(/C=N\Nc2nnc(C)c(=O)[nH]2)cc1
14 | 40% | O=C1N[C@H]2Cc3ccccc3CN2c2ccccc21
15 | inactive | Cc1ccc(C(=O)C2=C3NC(=O)c4ccccc4N3Cc3ccccc32)cc1
16 | inactive | CC1Oc2ccc(NC(=O)CNC(=O)c3ccccc3)cc2NC1=O (stereo not given)
17 | inactive | CC(C)(C)c1nn2c(SCC(=O)c3ccc(Cl)c(Cl)c3)nnc2[nH]c1=O
18 | inactive | O=C1Nc2ccc(S(=O)(=O)Nc3ccc(Cl)cn3)c3cccc1c23
19 | inactive | O=c1[nH]n(-c2ccc([N+](=O)[O-])cc2)c(=O)c2ccccc12
20 | inactive | CCCn1c2c(c(=S)[nH]c1=O)CCC2
21 | inactive | O=C(c1ccc(F)cc1)c1c2nc[nH]c(=O)c2c2ccccn12
22 | 40% | O=C(CSc1nc2sc3c(c2c(=O)[nH]1)CCC3)N(CCO)CCO
23 | inactive | O=c1[nH]c(NCc2ccncc2)nc2c1CCC2
24 | inactive | CC1Oc2ccc(NC(=O)COc3ccc(F)cc3)cc2NC1=O (stereo not given)
25 | inactive | O=C(CS(=O)(=O)CC(=O)c1ccc2c(c1)NC(=O)CO2)Nc1ccccc1
26 | inactive | O=C1Nc2ccc(S(=O)(=O)NCc3ccccn3)c3cccc1c23
27 | inactive | O=C(O)CN1C(=O)c2ccc3c4c(ccc(c24)C1=O)C(=O)N3
28 | inactive | Cc1ccc(C(=O)CSc2nc3c(c(=O)[nH]2)CCC3)cc1

Row | SMILES | inhibition
29 | Cc1ccc2cc(CCN)c(=O)[nH]c2c1C | inactive

Each compound was assayed against T1, Poly [ADP-ribose] polymerase 1 (assay: Inhibition of PARP-1 (unknown origin) after 60 mins by colorimetric assay).

Row | pIC50 | SMILES
30 | 5.71 | O=C1N[C@@H]2N(Cc3ccccc3C23CCOCC3)c2ccccc21
31 | 5.02 | N#Cc1c(-c2ccccc2)cn2c1[nH]c(=O)c1ccccc12
32 | 6.14 | Cc1sc2nc(SCC(=O)N3CCN(CCO)CC3)[nH]c(=O)c2c1C
33 | 5.72 | O=C1N[C@H]2Cc3ccccc3CN2c2ccccc21
34 | 4.85 | O=c1[nH]cnc2ccsc12
35 | 5.67 | O=C(CSc1nc2sc3c(c2c(=O)[nH]1)CCC3)N(CCO)CCO
